Data as given in patent US20160009752A1, “[…]-OXIMINO-AMINOALKYLETHERS AND PROCESS FOR PREPARATION THEREOF, USEFUL AS ANTIDIABETIC AND […] AGENTS” (COUNCIL OF SCIENTIFIC & INDUSTRIAL RESEARCH, priority 2013, published 2016).

Key:
db/db mice = test: db/db mice: blood glucose, OGTT, serum lipid and insulin; assay type: in vivo; conditions: for decrease in plasma insulin levels / enhancement of HDL-cholesterol level / lowering of serum triglycerides level (TG) / lowering of total cholesterol (T-Chol) level: 15 days
Protocol: Male C57BL/KsJ-db/db mice (8 to 12 weeks old, 35-45 g body weight) were procured from National Animal Laboratory Centre (NALC) of Central Drug Research Institute (CDRI), Lucknow, India. Animals were housed in polypropylene cages, in controlled environment (temperature 25±2° C.; humidity 50-60%; light 300 lux at floor level with regular 12 h light-12 h dark cycle; noise level 50 decibel; ventilation 10-15 air changes per hour). They were provided with a standard laboratory diet (Dayal Industry, Barabanki, Lucknow) unless stated otherwise and had free access to water. The animals were allocated into groups of 5 animals in each. Prior to start of the test sample feeding, a vehicle training period was followed from day −3 to day 0 during which all the animals were given vehicle (1% gum acacia) at a dose volume of 10 ml/kg body weight. At day 0 the animals having blood glucose level between 180 to 300 mg/di were selected and divided into three groups containing 5 animals in each. One group was considered as control group while the other group one was treatment group. The treatment groups were given suspensions of 14b at 1.0 and 3.0 mg/kg body weight, dose, respectively. The control group was given an equal amount of vehicle. All the animals had free access to fresh water and normal diet. Random blood glucose of each mouse was checked daily at 11.00. […] Blood has been withdrawn from the retro-orbital plexus of mice eye for the estimation of lipid profile and insulin.
In type 2 diabetes, elevated blood glucose level due to defect in peripheral glucose disposal results in hyperglycaemia. To observe the improvement on hyperglycaemia 14b was orally gavaged for 15 consecutive days and after dosing blood glucose of control and treated group were measured.

[1] = Stability studies in rat plasma samples; assay type: in vitro ADME; conditions: freeze-thaw cycle, bench top, dry residue and long term conditions
From the text: The plasma of the rat treated with compound 14b was then processed for the stability study. The compound is found to be stable during freeze-thaw cycle, on the bench top, dry residue and long term conditions after extraction from plasma.

db/+ mice = test: OGTT in glucose loaded db/+ mice; assay type: in vivo
Protocol: Male C57BL6-db/+ mice (12-18 week old, 18-20 g body weight) were procured from National Animal Laboratory Centre (NALC) of Central Drug Research Institute (CDRI), Lucknow, India Animals were housed in polypropylene cages, in controlled environment (temperature 25±2° C.; humidity 50-60%; light 300 lux at floor level with regular 12 h light-12 h dark cycle; noise level 50 decibel; ventilation 10-15 air changes per hour). They were provided with a standard laboratory diet (Dayal Industry, Barabanki, Lucknow) unless stated otherwise and has free access to water. The mice having fasting blood glucose values varying between 65-80 mg/dl were finally included in this study. Animals were divided into groups consisting of six animals in each. Group one was considered as control group, where as the other groups were termed as experimental groups. Rats of experimental groups were given the desired doses of the test samples i.e. 5, 10, 20, 30 and 50 mg/kg body weight. The test samples were always prepared in the vehicle 1% gum acacia. An oral glucose load of 3.0 g/kg was given to the animals of all the groups 30 min post administration of the test samples/vehicle. Blood glucose levels of the animals of all the groups were again measured at 30, 60, 90 and 120 min post glucose load. Food (not water) was removed from the cages during the experimental period. […] Comparing the AUC of test sample treated to that of control group determined the percent improvement in OGTT by test sample which is termed as anti-hyperglycaemic activity. Statistical comparison between the groups was done by employing Students t test.

sucrose loaded rat = test: Sucrose loaded rat model (SLM), oral tolerance test; assay type: in vivo; design: % Antihyperglycemic activity SLM: concentration or dose not given beside the values
From the text: On the day of experiment blood glucose of all the overnight fasted animals was checked by Glucostrips (Roche) using Glucometer (ACCU-CHEK II; Roche Diagnostics, USA). […] Animals were divided into groups consisting of five animals in each. […] The test compounds and standard drug was always prepared in the vehicle 1% gum acacia. […] Food (not water) was removed from the cages during the experimental period. […] Comparing the AUC of test sample or drug treated groups compared to control group determined the percent improvement in OGTT by test sample and standard drugs and termed as antihyperglycaemic activity. Statistical analysis between the groups was done by employing Students t test

## C/C(=N\OCCN1CCCCC1)[C@H]1CC[C@H]2[C@@H]3CC=C4C[C@@H](O)CC[C@]4(C)[C@H]3CC[C@]12C [Compound 14b, 3β-Hydroxy-pregna-5-en-20-one-O-(2-piperidin-1-yl-ethyl)-oxime]
db/db mice; 1.0 mg/kg oral
  decrease in plasma insulin levels: 4.03%
  enhancement of HDL-cholesterol level: 6.18%
  lowering of serum triglycerides level (TG): 13.8%
  lowering of total cholesterol (T-Chol) level: 13.3%
db/db mice; 3.0 mg/kg oral
  decrease in plasma insulin levels: 8.06%
  enhancement of HDL-cholesterol level: 13.6%
  lowering of serum triglycerides level (TG): 18.9%
  lowering of total cholesterol (T-Chol) level: 16.7%
db/db mice; 1.0 and 3.0 mg/kg oral, 15 consecutive days, FIG. 8
  blood glucose levels vs vehicle treated group, in words: decline in their blood glucose levels
db/db mice; day 10th, 1.0 mg/kg
  % Antihyperglycaemic activity (OGTT improvement): 10.3%
  Blood glucose profile, 0 min post glucose load: 211.6 ± 11.8 mg/dL
  Blood glucose profile, 30 min post glucose load: 559.8 ± 24.8 mg/dL
  Blood glucose profile, 60 min post glucose load: 568.0 ± 12.9 mg/dL
  Blood glucose profile, 90 min post glucose load: 502.8 ± 23.6 mg/dL
  Blood glucose profile, 120 min post glucose load: 437.8 ± 14.1 mg/dL
  decline in fasting blood glucose level: ~21.2%
db/db mice; day 10th, 3.0 mg/kg
  % Antihyperglycaemic activity (OGTT improvement): 15.1%
  Blood glucose profile, 0 min post glucose load: 190.2 ± 12.9 mg/dL
  Blood glucose profile, 30 min post glucose load: 542.2 ± 24.1 mg/dL
  Blood glucose profile, 60 min post glucose load: 523.2 ± 22.7 mg/dL
  Blood glucose profile, 90 min post glucose load: 482.0 ± 20.5 mg/dL
  Blood glucose profile, 120 min post glucose load: 414.0 ± 9.4 mg/dL
  decline in fasting blood glucose level: ~29.1%
db/db mice; day 15th, 1.0 mg/kg
  % Antihyperglycaemic activity (OGTT improvement): 16.9%
  Blood glucose profile, 0 min post glucose load: 183.6 ± 7.86 mg/dL
  Blood glucose profile, 30 min post glucose load: 499.2 ± 36.1 mg/dL
  Blood glucose profile, 60 min post glucose load: 560.6 ± 14.6 mg/dL
  Blood glucose profile, 90 min post glucose load: 468.8 ± 19.5 mg/dL
  Blood glucose profile, 120 min post glucose load: 383.8 ± 8.46 mg/dL
  decline in fasting blood glucose level: around 25.5%
db/db mice; day 15th, 3.0 mg/kg
  % Antihyperglycaemic activity (OGTT improvement): 24.5%
  Blood glucose profile, 0 min post glucose load: 160.2 ± 6.88 mg/dL
  Blood glucose profile, 30 min post glucose load: 458.8 ± 16.6 mg/dL
  Blood glucose profile, 60 min post glucose load: 513.2 ± 13.1 mg/dL
  Blood glucose profile, 90 min post glucose load: 420.0 ± 13.2 mg/dL
  Blood glucose profile, 120 min post glucose load: 348.0 ± 13.2 mg/dL
  decline in fasting blood glucose level: ~35.1%
[1]
  stability after extraction from plasma: stable
db/+ mice; 5 mg/kg
  % Antihyperglycaemic activity (OGTT improvement): 10.5%
db/+ mice; 10 mg/kg
  % Antihyperglycaemic activity (OGTT improvement): 19.8%
db/+ mice; 20 mg/kg
  % Antihyperglycaemic activity (OGTT improvement): 24.5%
db/+ mice; 30 mg/kg
  % Antihyperglycaemic activity (OGTT improvement): 28.9%
db/+ mice; 50 mg/kg
  % Antihyperglycaemic activity (OGTT improvement): 35.9%
Sucrose loaded rat; 100 mg/kg
  Blood glucose profile, 0 min post glucose load: 94.2 ± 2.6 mg/dL
  Blood glucose profile, 30 min post glucose load: 120.8 ± 2.1 mg/dL
  Blood glucose profile, 60 min post glucose load: 101.4 ± 2.9 mg/dL
  Blood glucose profile, 90 min post glucose load: 89.4 ± 3.3 mg/dL
  Blood glucose profile, 120 min post glucose load: 69.4 ± 2.3 mg/dL
Sucrose loaded rat; Table 2, sucrose loaded rat
  % Antihyperglycemic activity SLM: 24.4%
Sucrose loaded rat; all the models including db/+ mice models
  anti-diabetic activity, in words: better anti-diabetic activity
